Tests used:
Test in all cases: NCI SRB assay
HOP-92 = format: cell-based, human
K-562 = format: cell-based, human
MDA-MB-435 = format: cell-based
HS 578 T = format: cell-based, human
HCC-2998 = format: cell-based, human
NCI/ADR-RES = format: cell-based, human
NCI-H23 = format: cell-based, human
OVCAR-5 = format: cell-based, human
COLO 205 = format: cell-based, human
SN12C = format: cell-based, human; details: SN12C
BT-549 = format: cell-based, human
SK-MEL-2 = format: cell-based, human
OVCAR-4 = format: cell-based, human
UACC-257 = format: cell-based, human
SF-268 = format: cell-based, human
RPMI-8226 = format: cell-based, human
A549/ATCC = format: cell-based, human; details: A549/ATCC
ACHN = format: cell-based, human
SF-539 = format: cell-based, human
SK-MEL-28 = format: cell-based, human
OVCAR-8 = format: cell-based, human
SW-620 = format: cell-based, human
A498 = format: cell-based, human
U251 = format: cell-based, human
SNB-19 = format: cell-based, human
HCT-116 = format: cell-based, human
MOLT-4 = format: cell-based, human
MALME-3M = format: cell-based, human
NCI-H460 = format: cell-based, human
NCI-H322M = format: cell-based, human
LOX IMVI = format: cell-based, human
786-0 = format: cell-based, human

**Q.** For `Cc1ccc(-c2nc(Nc3ccc(C(=O)O)cc3)c3ccccc3n2)cc1` [8b, 4-((2-(p-Tolyl)quinazolin-4-yl)amino)benzoic acid], which GI% (HOP-92; HOP-92, 10 μM) is on record?
**A.** 25%

**Q.** What about the “Growth Percent” value (HOP-92; HOP-92, 1.00E-5 Molar) of the same molecule?
**A.** 75.22%

**Q.** And the GI% (K-562; K-562, 10 μM)?
**A.** 23%

**Q.** And the “Growth Percent” value (K-562; K-562, 1.00E-5 Molar)?
**A.** 76.80%

**Q.** What about the GI% (MDA-MB-435; MDA-MB-435, 10 μM) of the same molecule?
**A.** – (Only GI% higher than 20% are shown)

**Q.** And the “Growth Percent” value (MDA-MB-435; MDA-MB-435, 1.00E-5 Molar)?
**A.** 100.06%

**Q.** And the GI% (HS 578 T; HS 578 T, 10 μM)?
**A.** 32%

**Q.** What about the “Growth Percent” value (HS 578 T; HS 578T, 1.00E-5 Molar) of the same molecule?
**A.** 67.76%

**Q.** And the GI% (HCC-2998; HCC-2998, 10 μM)?
**A.** 28%

**Q.** What about the “Growth Percent” value (HCC-2998; HCC-2998, 1.00E-5 Molar) of the same molecule?
**A.** 72.45%

**Q.** What about the GI% (NCI/ADR-RES; 10 μM) of the same molecule?
**A.** 24%

**Q.** What about the “Growth Percent” value (NCI/ADR-RES; 1.00E-5 Molar) of the same molecule?
**A.** 76.55%

**Q.** What about the GI% (NCI-H23; NCI-H23, 10 μM) of the same molecule?
**A.** – (Only GI% higher than 20% are shown)

**Q.** And the “Growth Percent” value (NCI-H23; NCI-H23, 1.00E-5 Molar)?
**A.** 87.14%

**Q.** What about the GI% (OVCAR-5; OVCAR-5, 10 μM) of the same molecule?
**A.** – (Only GI% higher than 20% are shown)

**Q.** What about the “Growth Percent” value (OVCAR-5; OVCAR-5, 1.00E-5 Molar) of the same molecule?
**A.** 95.98%

**Q.** And the GI% (COLO 205; COLO 205, 10 μM)?
**A.** – (Only GI% higher than 20% are shown)

**Q.** What about the “Growth Percent” value (COLO 205; COLO 205, 1.00E-5 Molar) of the same molecule?
**A.** 109.50%

**Q.** And the GI% (SN12C; 10 μM)?
**A.** 51%

**Q.** What about the “Growth Percent” value (SN12C; 1.00E-5 Molar) of the same molecule?
**A.** 48.99%

**Q.** What about the GI% (BT-549; BT-549, 10 μM) of the same molecule?
**A.** 41%

**Q.** And the “Growth Percent” value (BT-549; BT-549, 1.00E-5 Molar)?
**A.** 59.16%

**Q.** What about the GI% (SK-MEL-2; SK-MEL-2, 10 μM) of the same molecule?
**A.** – (Only GI% higher than 20% are shown)

**Q.** And the “Growth Percent” value (SK-MEL-2; SK-MEL-2, 1.00E-5 Molar)?
**A.** 113.45%

**Q.** What about the GI% (OVCAR-4; OVCAR-4, 10 μM) of the same molecule?
**A.** 26%

**Q.** What about the “Growth Percent” value (OVCAR-4; OVCAR-4, 1.00E-5 Molar) of the same molecule?
**A.** 74.11%

**Q.** What about the GI% (UACC-257; UACC-257, 10 μM) of the same molecule?
**A.** – (Only GI% higher than 20% are shown)

**Q.** And the “Growth Percent” value (UACC-257; UACC-257, 1.00E-5 Molar)?
**A.** 107.52%

**Q.** What about the GI% (SF-268; SF-268, 10 μM) of the same molecule?
**A.** 30%

**Q.** What about the “Growth Percent” value (SF-268; SF-268, 1.00E-5 Molar) of the same molecule?
**A.** 70.34%

**Q.** What about the GI% (RPMI-8226; RPMI-8226, 10 μM) of the same molecule?
**A.** 45%

**Q.** What about the “Growth Percent” value (RPMI-8226; RPMI-8226, 1.00E-5 Molar) of the same molecule?
**A.** 55.07%

**Q.** What about the GI% (A549/ATCC; 10 μM) of the same molecule?
**A.** – (Only GI% higher than 20% are shown)

**Q.** And the “Growth Percent” value (A549/ATCC; 1.00E-5 Molar)?
**A.** 95.03%

**Q.** What about the GI% (ACHN; 10 μM) of the same molecule?
**A.** 24%

**Q.** And the “Growth Percent” value (ACHN; 1.00E-5 Molar)?
**A.** 75.90%

**Q.** And the GI% (SF-539; SF-539, 10 μM)?
**A.** 21%

**Q.** What about the “Growth Percent” value (SF-539; SF-539, 1.00E-5 Molar) of the same molecule?
**A.** 78.63%

**Q.** And the GI% (SK-MEL-28; SK-MEL-28, 10 μM)?
**A.** – (Only GI% higher than 20% are shown)

**Q.** And the “Growth Percent” value (SK-MEL-28; SK-MEL-28, 1.00E-5 Molar)?
**A.** 84.51%

**Q.** What about the GI% (OVCAR-8; OVCAR-8, 10 μM) of the same molecule?
**A.** – (Only GI% higher than 20% are shown)

**Q.** And the “Growth Percent” value (OVCAR-8; OVCAR-8, 1.00E-5 Molar)?
**A.** 81.90%

**Q.** And the GI% (SW-620; SW-620, 10 μM)?
**A.** – (Only GI% higher than 20% are shown)

**Q.** What about the “Growth Percent” value (SW-620; SW-620, 1.00E-5 Molar) of the same molecule?
**A.** 91.47%

**Q.** And the GI% (A498; A498, 10 μM)?
**A.** – (Only GI% higher than 20% are shown)

**Q.** And the “Growth Percent” value (A498; A498, 1.00E-5 Molar)?
**A.** 112.03%

**Q.** And the GI% (U251; U251, 10 μM)?
**A.** – (Only GI% higher than 20% are shown)

**Q.** What about the “Growth Percent” value (U251; U251, 1.00E-5 Molar) of the same molecule?
**A.** 86.94%

**Q.** What about the GI% (SNB-19; SNB-19, 10 μM) of the same molecule?
**A.** 29%

**Q.** And the “Growth Percent” value (SNB-19; SNB-19, 1.00E-5 Molar)?
**A.** 70.92%

**Q.** What about the GI% (HCT-116; HCT-116, 10 μM) of the same molecule?
**A.** 22%

**Q.** What about the “Growth Percent” value (HCT-116; HCT-116, 1.00E-5 Molar) of the same molecule?
**A.** 77.19%

**Q.** And the GI% (MOLT-4; MOLT-4, 10 μM)?
**A.** 24%

**Q.** And the “Growth Percent” value (MOLT-4; MOLT-4, 1.00E-5 Molar)?
**A.** 76.42%

**Q.** What about the GI% (MALME-3M; 10 μM) of the same molecule?
**A.** – (Only GI% higher than 20% are shown)

**Q.** What about the “Growth Percent” value (MALME-3M; 1.00E-5 Molar) of the same molecule?
**A.** 101.05%

**Q.** And the GI% (NCI-H460; NCI-H460, 10 μM)?
**A.** – (Only GI% higher than 20% are shown)

**Q.** What about the “Growth Percent” value (NCI-H460; NCI-H460, 1.00E-5 Molar) of the same molecule?
**A.** 82.06%

**Q.** What about the GI% (NCI-H322M; 10 μM) of the same molecule?
**A.** – (Only GI% higher than 20% are shown)

**Q.** What about the “Growth Percent” value (NCI-H322M; 1.00E-5 Molar) of the same molecule?
**A.** 84.20%

**Q.** And the GI% (LOX IMVI; 10 μM)?
**A.** 43%

**Q.** And the “Growth Percent” value (LOX IMVI; 1.00E-5 Molar)?
**A.** 57.05%

**Q.** What about the GI% (786-0; 786-0, 10 μM) of the same molecule?
**A.** – (Only GI% higher than 20% are shown)

**Q.** And the “Growth Percent” value (786-0; 786-0, 1.00E-5 Molar)?
**A.** 85.63%

Source: publication PMC10035947, “Development of novel anilinoquinazoline-based carboxylic acids as non-classical carbonic anhydrase IX and XII inhibitors” (Journal of Enzyme Inhibition and Medicinal Chemistry, 2023)
